Results from BigSolDB 2.1.

NC(N)=NCCC[C@H](NC(=O)OCc1ccccc1)C(=O)O
solubility (mole fraction)
Conditions	283.15 K	288.15 K	293.15 K	298.15 K	303.15 K	313.15 K	323.15 K
in 2-butanone	9.88e-05	–	0.000118	–	0.000136	0.000164	0.000196
in DMF	0.00164	–	0.00346	–	0.00597	0.00993	0.0183
in acetone	2.5e-05	–	4.7e-05	–	5.73e-05	6.89e-05	9.91e-05
in acetonitrile	1.5e-05	–	2.71e-05	–	3.52e-05	4.03e-05	4.82e-05
in dichloromethane	8.03e-05	0.000103	0.000144	0.000183	0.000233	–	–
in ethanol	0.000193	–	0.000255	–	0.000379	0.000558	0.000898
in ethyl acetate	4.73e-05	–	6.24e-05	–	7.31e-05	8.72e-05	9.78e-05
in isopropanol	7.15e-05	–	0.000127	–	0.000163	0.000223	0.000275
in methanol	0.000468	–	0.000602	–	0.00107	0.00137	0.00207
in n-butanol	6.05e-05	–	0.000103	–	0.000141	0.000178	0.000239
in n-hexane	4.3e-05	–	5.7e-05	–	7.42e-05	8.12e-05	0.000119
in water	0.000198	–	0.000307	–	0.000417	0.000663	0.00104
